From PMC13011345, “Computational and experimental identification of potential neutralizing peptides derived from human ACE2 against SARS-CoV-2 infection” (Journal of Virology, 2026)
Ends that are not written are not given here.

Tested on: pseudotyped SARS-CoV-2 particle (VSV-SARS-CoV-2-S virus, Wuhan-Hu-1 spike) infecting BHK21-hACE2 cells
Details: 1 h

Row | Sequence | IC50 [nM]
1 | AWDLGKGDFRIL [ACE348–359] | 31.2
2 | HIQYDMAYAAQPFLLRNG [ACE378–395] | 3.8
3 | LPNMTQGFWENSML [ACE320–333] | 43.9
4 | QKLFNMLRLGKS [ACE552–563] | 12.5
